In patent publication US20220133747A1, “ESTROGEN RECEPTOR INHIBITORS AND USES THEROF” (The Regents of the University of California, priority 2018, published 2022):

Key:
[1] = molecular target: T1, ERα (Homo sapiens, UniProt P03372); experiment: Downregulation of ER protein, PAGE and Western immunoblot in MCF-7 cells; type: cell-based; details: 100 nM, 4 hours, phenol-red free medium without FBS
T1 construct: endogenous in cells; host or cells: MCF-7 human breast cancer cells (ATCC)
T1 sequence (P03372 1-595): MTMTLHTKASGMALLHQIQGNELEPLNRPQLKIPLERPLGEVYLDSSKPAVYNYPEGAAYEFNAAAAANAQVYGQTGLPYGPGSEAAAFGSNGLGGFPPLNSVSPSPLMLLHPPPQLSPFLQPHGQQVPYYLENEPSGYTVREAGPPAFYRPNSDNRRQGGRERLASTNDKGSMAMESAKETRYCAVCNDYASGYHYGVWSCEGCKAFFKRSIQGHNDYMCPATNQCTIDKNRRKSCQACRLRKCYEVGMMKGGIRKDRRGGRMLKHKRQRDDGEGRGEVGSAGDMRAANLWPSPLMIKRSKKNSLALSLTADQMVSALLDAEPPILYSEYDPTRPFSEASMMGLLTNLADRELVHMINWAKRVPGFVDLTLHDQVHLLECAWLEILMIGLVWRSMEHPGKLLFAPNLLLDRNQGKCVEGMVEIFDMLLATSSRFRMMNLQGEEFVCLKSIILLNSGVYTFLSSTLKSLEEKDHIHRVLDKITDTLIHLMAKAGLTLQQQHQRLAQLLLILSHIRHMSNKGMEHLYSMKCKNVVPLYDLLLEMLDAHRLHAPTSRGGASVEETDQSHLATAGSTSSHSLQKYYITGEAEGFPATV
Experimental: (§1) FIGS. 20A-20C show biologic activity of selected SERD candidates. […] ER-positive MCF-7 cells were treated in phenol-red free RPMI 1640 without FBS and containing vehicle control (CON) or 100 nM concentrations of either fulvestrant (FX) or antiestrogens 105, 109, 121, 140, 151, 160 or SERD128 in vitro. After 4 hours, cells were harvested and processed for PAGE and Western immunoblots using ERα antibody (1D5, Thermofisher Scientific). RPL13A was used as a loading control. […] Cells were dosed with either E2 alone or with SERDs combined with E2 in phenol redfree medium with 0.1% dextran-coated charcoal-treated FBS in luminometer plates. Data are presented as relative light units (RLU) relative to that of E2 alone in three replicate assays (4 wells per replicate) f SEM. Treatment with E2 alone induced a 12-fold induction of ER-dependent luciferase activity quantified as RLU relative to vehicle control-treated samples.
MCF7 cells were plated in regular medium. After 24 hrs, cells were incubated in the presence of antiestrogens or fulvestrant for 4 hrs in phenol-red free medium without FBS. Cell lysates were prepared using RIPA buffer, and protein concentration was determined using the BCA Protein Assay Kit (PIERCE/ThermoFisher Scientific). Forty micrograms of total cell protein was resolved by 4-15% SDS-PAGE, transferred to a PVDF membrane and probed with antibody directed against ERα (1D5, 1:100, ThermoFisher cat #MA5-13191). RPL13A (dilution 1:1000, Invitrogen/ThermoFisher cat #PA5-58528) was used as loading control.

[2] = tested on: ER+ early breast cancer; details: cited from earlier work
[3] = tested on: ER-dependent transcription; experiment: ERE-luciferase T47D reporter, ER-dependent transcriptional activity; type: cell-based, human; details: E2 alone, 2 nM
Experimental: as §1
A stable ER-positive T47D ERE luciferase reporter cell line, in which the ERE and the reporter luciferase gene are consistently expressed in the cell line were used in this study (Signosis). […] Lysate was mixed 1:1 with luciferase substrate (Promega), and luminescence was measured using a MLX microtiter plate luminometer (Dynex) and quantified as relative light units (RLU) according to established procedures. Total protein was quantified using BioRad Protein Assay (BioRad).

In the case of `C[C@]12C[C@H](Oc3ccc(NC(=O)CCCCN4CCCCC4)c(F)c3)[C@@H]3c4ccc(O)cc4CC[C@H]3[C@@H]1CC[C@@H]2O` [SERD140, N-(4-(((8S,9S,11S,13S,14S,17S)-3,17-Dihydroxy-13-methyl-7,8,9,11,12,13,14,15,16,17-deca-hydro-6H-cyclopenta[a]phenanthren-11-yl)oxy)-2-fluorophenyl)-5-(piperidin-1-yl)pentan-amide], the “downregulation of ER protein (ERα protein levels)” value [1] is reported as “most effective in reducing ER protein levels”.
For `CC/C(=C(\c1ccccc1)c1ccc(OCCN(C)C)cc1)c1ccccc1` [Tamoxifen], the “reduction in disease recurrence” value [2] is listed as 39% and the reduction in mortality [2] is listed as 31%.
In the case of `C[C@]12CC[C@@H]3c4ccc(O)cc4CC[C@H]3[C@@H]1CC[C@@H]2O` [E2, estradiol-17β, reference compound], the “induction of ER-dependent luciferase activity (RLU relative to vehicle control)” value [3] is reported as 12 fold.
